test: gradient 5% acetonitrile 3 min, to 50% in 2 min, to 85% in 15 min, held 3 min, 100 µL/min; details: column: Zorbax Extend-C18 2.1 x 50 mm; eluents: water / acetonitrile, 0.1% formic acid
How it was run: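 Using water and acetonitrile that each contained 0.1% formic acid, mixtures of ~100 pure standards were separated at 100 μL/min on a Zorbax Extend-C18 column (2.1 × 50 mm, 1.8 μm). The HPLC fed a quadrupole time-of-flight mass spectrometer working in positive and negative ionization mode, with dead and dwell volumes of 40 μL and 900 μL. Data were acquired over 3 months. Retention time was read from computationally picked adduct peaks after manual inspection of each.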

Compound	RP-LC retention time
CSc1ccc(NC(=O)Nc2cc(C)ccn2)cc1	782 s
CC(C)CC1OC(=O)C2=CCCCC21 (configuration not stated)	1050 s
CC(C)CCNC(=O)NCCc1nc2cccnc2n1Cc1ccccc1	726 s
O=C(CN1C(=O)CCS(=O)(=O)c2ccccc21)NCCc1ccccc1	745 s
CCCCCc1cc(O)c2c(c1)OC(C)(C)[C@@H]1CCC(C(=O)O)=CC21 (some centres not stated)	1130 s
Cn1c(=O)n(C)c2cc(Sc3ccccc3)c(NC(=O)C3CC3)cc21	849 s
CCCN(CC1CCOC1)S(=O)(=O)c1cc(Cl)ccc1OC (configuration not stated)	939 s
Cc1cc(C)cc(NC(=O)N2CCC3(CC2)NC(=O)c2cc(F)ccc2N3C)c1	769 s
O=C(N[C@@H]1CN(Cc2ccccc2)C[C@H]1CO)C1(c2ccccc2)CC1	652 s
CC(C)CCN(CC(=O)N1CCNCC1)C(=O)c1cccc(Br)c1	654 s
CNC(=O)[C@H]1O[C@@H](n2cnc3c(NCc4cccc(I)c4)nc(Cl)nc32)C(O)[C@H]1O (some centres not stated)	768 s
O=C(NC1CCCC1)C1CCc2sc(C(=O)N3CCCCCC3)cc2C1 (configuration not stated)	900 s
Cc1ccc(-c2nc(Cn3c(C)nc4onc(C)c4c3=O)c(C)o2)cc1	1170 s
Cc1nn(C2CCS(=O)(=O)C2)c(C)c1N1CCN(S(=O)(=O)c2cccnc2)CC1 (configuration not stated)	679 s
O=C(CN1C(=O)C2CCCCN2c2ccc(S(=O)(=O)N3CCCC3)cc21)NCc1cccs1 (configuration not stated)	882 s
CCC(=O)NC1CCc2cccc(OC)c2C1 (configuration not stated)	821 s
Cc1noc(C)c1S(=O)(=O)N1CC(c2nc(-c3ccncc3)nn2C)C1	618 s
CC(C)NC(=O)c1ccc2cnn(C)c2c1	667 s
CCC(C)NC(=O)c1ccc2c(c1)N(C(=O)NC)CC2 (configuration not stated)	652 s
CN1C(=O)c2cc(C(=O)NC3CCCCC3)nn2CC1(C)C(=O)NCc1ccccc1 (configuration not stated)	758 s
Cc1ccc(C)c(C(=O)NCc2ccc3c(c2)ncn3C)c1	604 s
O=C(c1ccc(OCC2CCCN(C(=O)C3CCCC3)C2)cc1)N1CCOCC1 (configuration not stated)	750 s
Cc1ccc2c(c1)N(S(C)(=O)=O)CCC(C(=O)Nc1ccccc1)O2 (configuration not stated)	892 s
O=C1NC(C(=O)NCc2ccco2)Cn2cccc21 (configuration not stated)	605 s
Cc1cc(NCc2ccccn2)n2ncc(-c3ccccc3)c2n1	706 s
CCN(CC)c1nc2cc(C(=O)OC)ccc2c(=O)n1-c1cc(F)cc(F)c1	1180 s
COc1cc(C(=O)Nc2nc(-c3ccc4c(c3)N(C)C(=O)CO4)cs2)cc(OC)c1OC	860 s
Cc1noc2ncn(CC(=O)NCc3ccc(F)cc3)c(=O)c12	724 s
CC(C)c1nncn1C1CCN(S(=O)(=O)c2cccc(F)c2)CC1	707 s
Cc1ccc(NC(=O)Cn2ncc3c(c2=O)N(CC2CC2)C(=O)CS3)cc1F	928 s

The remaining lines, values ahead:

RP-LC retention time	Compound
676 s	O=C(c1cn(-c2cc(Nc3ccccc3)ncn2)cn1)N1CCOCC1
965 s	CCc1nnc(-c2ccc3ccn(CC(=O)N4CCN(c5ccc(Cl)cc5)CC4)c3c2)o1
606 s	CSc1cccc(Nc2c(C(=O)N3CCOCC3)cnc3nc(C)ccc23)c1
707 s	CCOc1cc(=O)n2c(c1C(=O)N1CCCc3ccccc31)CCCC2
658 s	COc1ccc(-c2nc(C)cc(C)c2CNS(=O)(=O)c2ccccc2C)cc1
716 s	O=C(Cn1cccc1-c1nc(-c2ccccc2)cs1)N1CCC(N2CCCCC2)CC1
762 s	Cc1ccc(-n2cc3c(N4CCCC(C(=O)NC5CCCCCC5)C4)ncnc3n2)cc1 (configuration not stated)
1040 s	CCn1cc(-c2ccc(C)cc2)cc1C(=O)NC(C)C
920 s	CN(C)c1ccc(-c2noc(C3CC(=O)N(c4ccc5c(c4)OCCO5)C3)n2)cc1 (configuration not stated)
1140 s	Cc1ccc(F)c(NC(=O)c2c(O)c3cccnc3n(-c3ccc(F)cc3)c2=O)c1
680 s	CCN(CC)C(=O)c1cc(NS(=O)(=O)c2ccc(C(C)(C)C)cc2)cnc1N1CCNCC1
657 s	CNC(=O)c1ccc(-c2nc3cc(NS(=O)(=O)c4ccc(C)cc4C)ccc3n2C)cc1
775 s	Cc1cccc(-n2ncc(C(N)=O)c2-n2cccc2)c1
947 s	Cc1ccc(-c2nc3cnccn3c2Nc2c(C)cccc2C)cc1
632 s	CCC(C(=O)N1CCN(c2ccccn2)CC1)n1c(C)c2cnn(-c3ccccc3)c(=O)c2c1C (configuration not stated)
641 s	CCCN1CCN(CCNC(=O)C2CCCN(c3ncc(-c4ccc(F)cc4)cn3)C2)CC1 (configuration not stated)
1110 s	O=[N+]([O-])c1ccc(-c2csc(Nc3ccc4c(c3)OCO4)n2)cc1
578 s	COc1ccc(NC(=O)c2cnc(N3CCN(C)CC3)nc2N)cc1
1160 s	O=S(=O)(c1ccc(Br)cc1)N1CCCC1c1nc(-c2ccc(F)cc2)no1 (configuration not stated)

RP-LC retention time	Compound
940 s	CCCn1ccc2sc(C)c(C(=O)NCc3cc(F)ccc3F)c2c1=O
875 s	CCc1cccc(CC)c1NC(=O)c1cccc(OC)c1
830 s	O=C(C1=CN(c2ccc(Cl)cc2)c2cc(F)ccc2S1(=O)=O)N1CCOCC1
808 s	CC(C)(C)c1noc(-c2ccnc(-n3cnc(C(=O)N4CCOCC4)c3)c2)n1
837 s	O=C(CSCc1ccccc1)N1CCC(c2nnc(-c3ccco3)s2)CC1
805 s	O=S(=O)(c1c[nH]c2ncccc12)N1CCN(c2ccccc2)CC1
610 s	CCNc1cc(N2CCCC(CCC(=O)N3CCN(C(=O)c4ccco4)CC3)C2)ncn1 (configuration not stated)
778 s	CN(C)c1ccc(C(=O)NC2CCN(c3ccc(F)cc3)C2=O)cc1 (configuration not stated)
667 s	O=C(CCc1c(-c2ccc(Br)cc2)nc2ccccn12)NC1CCCC1
904 s	COCCN1C(=O)Cc2ccccc2C1C(=O)N1CCN(c2ccccc2Cl)CC1 (configuration not stated)
708 s	Clc1ccc(-c2nc3ccccn3c2Nc2ccc3c(c2)OCCO3)cc1
571 s	CCN1CCCC1CNC(=O)CN1C(=O)CCn2nc(-c3cn(C)c4ccccc34)cc21 (configuration not stated)
627 s	Cn1cc(-c2nc(-c3cccc(Cl)c3)no2)c(=O)c2cc(F)c(N3CCCC3)cc21
767 s	O=C(Nc1cccc(F)c1)N1CCC(n2c(-c3ccco3)nc3cccnc32)C1 (configuration not stated)
679 s	Cc1ccc(C)c(CNC(=O)c2cc(-c3ccncc3)cn2C)c1
1360 s	Cc1ccc(-c2ncc3c(=O)n(Cc4ccc(Cl)cc4)c(=O)n(C)c3n2)cc1
1030 s	Cc1cc(-c2nnc(-c3ccccc3)o2)c(C)n1CC(=O)Nc1cccc(Cl)c1
628 s	CCN1CCN(Cc2ccc(-c3cc4c(N[C@H](C)c5ccccc5)ncnc4[nH]3)cc2)CC1

From the METLIN SMRT retention time set (Domingo-Almenara et al. 2019)
